# How the values were obtained:
# PDIA3 [1] = molecular target: T1, PDIA3 (Homo sapiens, UniProt P30101); assay: Disulfide reductase activity with DiE-GSSG fluorogenic probe; assay type: biochemical; conditions: DiE-GSSG substrate; for Inhibition of disulfide reductase (redox) activity: 20 μM flavonoid (Figure 7)
# T1 construct: made in house; host or cells: E. coli BL21 (vector pET21)
# T1 sequence (P30101 25-505): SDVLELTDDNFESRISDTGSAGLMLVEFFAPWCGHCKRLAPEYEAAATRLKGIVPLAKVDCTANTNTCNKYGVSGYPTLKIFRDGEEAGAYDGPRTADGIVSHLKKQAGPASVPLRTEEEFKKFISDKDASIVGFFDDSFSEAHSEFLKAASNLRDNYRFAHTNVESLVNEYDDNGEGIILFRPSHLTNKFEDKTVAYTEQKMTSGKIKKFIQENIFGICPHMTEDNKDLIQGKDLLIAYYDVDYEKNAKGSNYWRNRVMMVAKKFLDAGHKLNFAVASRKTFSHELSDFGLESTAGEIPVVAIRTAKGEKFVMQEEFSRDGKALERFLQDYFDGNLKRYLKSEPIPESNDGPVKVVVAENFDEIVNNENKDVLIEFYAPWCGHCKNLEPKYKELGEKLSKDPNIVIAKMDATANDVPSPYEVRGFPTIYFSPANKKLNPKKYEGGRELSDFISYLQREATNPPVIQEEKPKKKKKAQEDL
# Procedure: Disulfide reductase activity of ERp57 was monitored by sensitive fluorescent assay using dieosin glutathione disulfide (DiE-GSSG) as fluorogenic probe. DiE-GSSG was synthesized by the reaction of eosin isothiocyanate with oxidized glutathione (GSSG) according to the method of Raturi and Mutus with some modifications. DiE-GSSG concentration was determined spectrophotometrically (ℇ 525 = 88,000 M^-1 cm^−1). Disulfide reductase activity was assayed in a reaction buffer containing 2 mM EDTA, 150 nM DiE-GSSG, and 5 μM DTT in PBS. A 20 μl aliquot of a stock solution of PDIA3 (1 μM) was added to the reaction mixture and DiE-GSSG reduction was monitored at 545 nm with excitation at 520 nm, at 25°C with continuous stirring. Reductase activity was calculated as the initial velocity in fluorescence increase. To test the effect of flavonoids on PDIA3 activity, the protein stock solution was previously incubated for 15 minutes at room temperature with different concentrations of each flavonoid and then a 20 μl aliquot subjected to assay in a reaction buffer containing the same concentration of the flavonoid.
# Fluorescence quenching constant (K SV) values were given as means ± standard deviation and values of disulfide reductase activity were expressed in % of control sample ± relative standard deviation. All measurements were performed at least three times. Dunnett's test was used to compare the obtained reductase activity data with the activity of the untreated protein and a p value of <0.01 was considered as statistically significant.
# PDIA3 [2] = molecular target: T1, PDIA3; assay: DNA binding activity by EMSA; assay type: biochemical; conditions: flavonoid 0 to 50 μM
# Procedure: EMSA assay was performed using a 79-bp […] obtained by PCR as previously described. Amplified DNA was end-labeled by using 5-fluorescein-modified primers. 10 ng of DNA fragment was incubated with 1 μg of PDIA3 or a′ domain, in presence of increasing concentration of flavonoids (from 0 to 50 μM). Controls were performed using DNA alone and in the presence of each flavonoid. All tests were performed in 20 μl mixtures containing 20 mM Tris-HCl, pH 7.5, 50 mM NaCl, and 10% (v/v) glycerol. Samples were incubated for 1 hour at 25°C and then resolved on 5% polyacrylamide gels in 0,25% TBE buffer (22.5 mM Tris-borate, 5 mM EDTA, pH 8.3) at 150 V. Gel images were recorded using a ChemiDoc MP Imaging System (BioRad) equipped with an epi-blue excitation lamp and a 520 nm emission filter.
# PDIA3 [3] = molecular target: T1, PDIA3; assay: Differential scanning fluorimetry (thermal stability, SYPRO Orange); assay type: binding; conditions: flavonoid up to 50 μM, mainly at the highest concentration
# Procedure: Protein stability was tested by the fluorescence-based thermal stability assay or differential scanning fluorimetry (DSF) developed by Pantoliano and coworkers. DSF records the fluorescence emission signal from the binding of a dye (SYPRO orange) to the exposed hydrophobic patches upon protein unfolding. Fluorescence measurements were performed using a CFX96 Connect RT-PCR instrument (BioRad). 18 μl aliquots of protein solution (1 μM), freshly diluted in Tris Buffered saline (50 mM TrisHCl, pH 8.0, 150 mM NaCl) containing 0.1 mM DTT, 0.2 mM EDTA, and 1 : 1000 dilution of SYPRO Orange (50 mM stock solution in DMSO), were distributed in a 96-well plate. Sample wells were addition of increasing concentration (up to 50 μM) of individual flavonoid by adding 2 μl of 10-fold concentrated stock solutions freshly prepared. As control, the protein solution was added with 2 μl of the dilution buffer. A melting point analysis was recorded increasing the temperature from 20 to 95°C with an increment of 0.5°C and reading, at each temperature, the fluorescence in fluorescence resonance energy transfer mode (FRET). Each measure was the average of three sample wells reading and each DSF experiment was repeated at least three times. To calculate T m values, DSF data from the melting curve were exported and fitted to Boltzman equation using GraphPad software. Effect of flavonoids was evaluated comparing the T m values in presence and absence of each molecule.
Compound,Inhibition of disulfide reductase (redox) activity (PDIA3 [1]),Effect on disulfide reductase activity (in words) (PDIA3 [1]),Effect on DNA binding activity of PDIA3 (PDIA3 [2]),Effect on PDIA3 stability (T m) (PDIA3 [3]),Inhibition of disulfide reductase (redox) activity (PDIA3 [1]; listed as eupatorin)
"COc1ccc(-c2cc(=O)c3c(OC)c(OC)c(OC)cc3o2)cc1O [Eupatorin-5-methyl ether, eupatorin-5-methyl-ether]",up to 40%,noticeable inhibitory effect,did not significantly affect,–,–
"O=c1cc(-c2ccc(O)cc2)oc2cc(O)cc(O)c12 [Apigenin, apigenin]",–,no evident effect,–,"similar, but less pronounced, effect",–
"COc1ccc(-c2cc(=O)c3c(O)c(OC)c(OC)cc3o2)cc1O [Eupatorin, eupatorin]",40%,noticeable inhibitory effect,did not significantly affect and None,–,up to 40%
